± gives the expanded uncertainty stated by the source.
Conditions: Liquid, Pulse-echo method

C=CCCCCCCCCCCCCCC [1-hexadecene]
Conditions	speed of sound [m/s]
303.15 K, 100 kPa	1314.4 ± 2.9
303.15 K, 2500 kPa	1327.9 ± 3
303.15 K, 5000 kPa	1341.7 ± 3
303.15 K, 10000 kPa	1368.2 ± 3
303.15 K, 15000 kPa	1393.7 ± 3.1
303.15 K, 20000 kPa	1418.2 ± 3.1
303.15 K, 30000 kPa	1464.6 ± 3.2
303.15 K, 40000 kPa	1508 ± 3.3
303.15 K, 60000 kPa	1587.7 ± 3.4
303.15 K, 80000 kPa	1659.7 ± 3.6
303.15 K, 100000 kPa	1725.7 ± 3.7
313.15 K, 100 kPa	1278.1 ± 2.9
313.15 K, 2500 kPa	1292.1 ± 2.9
313.15 K, 5000 kPa	1306.4 ± 2.9
313.15 K, 10000 kPa	1333.9 ± 3
313.15 K, 15000 kPa	1360.2 ± 3
313.15 K, 20000 kPa	1385.5 ± 3.1
313.15 K, 30000 kPa	1433.2 ± 3.1
313.15 K, 40000 kPa	1477.8 ± 3.2
313.15 K, 60000 kPa	1559.3 ± 3.4
313.15 K, 80000 kPa	1632.8 ± 3.5
313.15 K, 100000 kPa	1700 ± 3.6
323.15 K, 100 kPa	1242.5 ± 2.8
323.15 K, 2500 kPa	1257.1 ± 2.8
323.15 K, 5000 kPa	1271.9 ± 2.9
323.15 K, 10000 kPa	1300.3 ± 2.9
323.15 K, 15000 kPa	1327.5 ± 3
323.15 K, 20000 kPa	1353.6 ± 3
323.15 K, 30000 kPa	1402.7 ± 3.1
323.15 K, 40000 kPa	1448.4 ± 3.2
323.15 K, 60000 kPa	1531.8 ± 3.3
323.15 K, 80000 kPa	1606.8 ± 3.5
323.15 K, 100000 kPa	1675.2 ± 3.6
333.15 K, 100 kPa	1207.6 ± 2.8
333.15 K, 2500 kPa	1222.7 ± 2.8
333.15 K, 5000 kPa	1238 ± 2.8
333.15 K, 10000 kPa	1267.5 ± 2.9
333.15 K, 15000 kPa	1295.6 ± 2.9
333.15 K, 20000 kPa	1322.4 ± 2.9
333.15 K, 30000 kPa	1372.9 ± 3
333.15 K, 40000 kPa	1419.8 ± 3.1
333.15 K, 60000 kPa	1505.1 ± 3.3
333.15 K, 80000 kPa	1581.5 ± 3.4
333.15 K, 100000 kPa	1651.1 ± 3.5
343.15 K, 100 kPa	1173.2 ± 2.7
343.15 K, 2500 kPa	1188.9 ± 2.7
343.15 K, 5000 kPa	1204.9 ± 2.7
343.15 K, 10000 kPa	1235.4 ± 2.8
343.15 K, 15000 kPa	1264.4 ± 2.8
343.15 K, 20000 kPa	1292.1 ± 2.9
343.15 K, 30000 kPa	1343.9 ± 3
343.15 K, 40000 kPa	1392 ± 3.1
343.15 K, 60000 kPa	1479.1 ± 3.2
343.15 K, 80000 kPa	1556.9 ± 3.4
343.15 K, 100000 kPa	1627.7 ± 3.5
353.15 K, 100 kPa	1139.5 ± 2.6
353.15 K, 2500 kPa	1155.8 ± 2.7
353.15 K, 5000 kPa	1172.3 ± 2.7
353.15 K, 10000 kPa	1204 ± 2.7
353.15 K, 15000 kPa	1233.9 ± 2.8
353.15 K, 20000 kPa	1262.4 ± 2.8
353.15 K, 30000 kPa	1315.7 ± 2.9
353.15 K, 40000 kPa	1364.9 ± 3
353.15 K, 60000 kPa	1453.9 ± 3.2
353.15 K, 80000 kPa	1533.1 ± 3.3
353.15 K, 100000 kPa	1605 ± 3.5
363.15 K, 100 kPa	1106.4 ± 2.6
363.15 K, 2500 kPa	1123.3 ± 2.6
363.15 K, 5000 kPa	1140.5 ± 2.6
363.15 K, 10000 kPa	1173.2 ± 2.7
363.15 K, 15000 kPa	1204.1 ± 2.7
363.15 K, 20000 kPa	1233.5 ± 2.8
363.15 K, 30000 kPa	1288.2 ± 2.9
363.15 K, 40000 kPa	1338.6 ± 3
363.15 K, 60000 kPa	1429.4 ± 3.1
363.15 K, 80000 kPa	1510 ± 3.3
363.15 K, 100000 kPa	1583 ± 3.4
373.15 K, 100 kPa	1073.8 ± 2.5
373.15 K, 2500 kPa	1091.4 ± 2.6
373.15 K, 5000 kPa	1109.2 ± 2.6
373.15 K, 10000 kPa	1143.1 ± 2.6
373.15 K, 15000 kPa	1175 ± 2.7
373.15 K, 20000 kPa	1205.2 ± 2.7
373.15 K, 30000 kPa	1261.4 ± 2.8
373.15 K, 40000 kPa	1313 ± 2.9
373.15 K, 60000 kPa	1405.5 ± 3.1
373.15 K, 80000 kPa	1487.6 ± 3.2
373.15 K, 100000 kPa	1561.6 ± 3.4
383.15 K, 100 kPa	1041.7 ± 2.5
383.15 K, 2500 kPa	1060.1 ± 2.5
383.15 K, 5000 kPa	1078.6 ± 2.5
383.15 K, 10000 kPa	1113.6 ± 2.6
383.15 K, 15000 kPa	1146.5 ± 2.6
383.15 K, 20000 kPa	1177.7 ± 2.7
383.15 K, 30000 kPa	1235.3 ± 2.8
383.15 K, 40000 kPa	1288.1 ± 2.9
383.15 K, 60000 kPa	1382.4 ± 3
383.15 K, 80000 kPa	1465.8 ± 3.2
383.15 K, 100000 kPa	1540.9 ± 3.3
393.15 K, 100 kPa	1010.2 ± 2.4
393.15 K, 2500 kPa	1029.3 ± 2.5
393.15 K, 5000 kPa	1048.5 ± 2.5
393.15 K, 10000 kPa	1084.8 ± 2.5
393.15 K, 15000 kPa	1118.8 ± 2.6
393.15 K, 20000 kPa	1150.8 ± 2.6
393.15 K, 30000 kPa	1209.9 ± 2.7
393.15 K, 40000 kPa	1263.8 ± 2.8
393.15 K, 60000 kPa	1360 ± 3
393.15 K, 80000 kPa	1444.6 ± 3.2
393.15 K, 100000 kPa	1520.8 ± 3.3
403.15 K, 100 kPa	979.2 ± 2.4
403.15 K, 2500 kPa	999.1 ± 2.4
403.15 K, 5000 kPa	1019 ± 2.4
403.15 K, 10000 kPa	1056.6 ± 2.5
403.15 K, 15000 kPa	1091.6 ± 2.6
403.15 K, 20000 kPa	1124.6 ± 2.6
403.15 K, 30000 kPa	1185.2 ± 2.7
403.15 K, 40000 kPa	1240.3 ± 2.8
403.15 K, 60000 kPa	1338.2 ± 3
403.15 K, 80000 kPa	1424.1 ± 3.1
403.15 K, 100000 kPa	1501.3 ± 3.3
413.15 K, 100 kPa	948.7 ± 2.4
413.15 K, 2500 kPa	969.4 ± 2.4
413.15 K, 5000 kPa	990.1 ± 2.4
413.15 K, 10000 kPa	1029 ± 2.5
413.15 K, 15000 kPa	1065.2 ± 2.5
413.15 K, 20000 kPa	1099 ± 2.6
413.15 K, 30000 kPa	1161.2 ± 2.7
413.15 K, 40000 kPa	1217.4 ± 2.7
413.15 K, 60000 kPa	1317 ± 2.9
413.15 K, 80000 kPa	1404.2 ± 3.1
413.15 K, 100000 kPa	1482.4 ± 3.2
423.15 K, 100 kPa	918.8 ± 2.3
423.15 K, 2500 kPa	940.3 ± 2.4
423.15 K, 5000 kPa	961.8 ± 2.4
423.15 K, 10000 kPa	1002 ± 2.4
423.15 K, 15000 kPa	1039.3 ± 2.5
423.15 K, 20000 kPa	1074.1 ± 2.5
423.15 K, 30000 kPa	1137.8 ± 2.6
423.15 K, 40000 kPa	1195.2 ± 2.7
423.15 K, 60000 kPa	1296.5 ± 2.9
423.15 K, 80000 kPa	1384.9 ± 3
423.15 K, 100000 kPa	1464 ± 3.2
433.15 K, 100 kPa	889.2 ± 2.3
433.15 K, 2500 kPa	911.7 ± 2.3
433.15 K, 5000 kPa	934 ± 2.3
433.15 K, 10000 kPa	975.7 ± 2.4
433.15 K, 15000 kPa	1014.1 ± 2.4
433.15 K, 20000 kPa	1049.8 ± 2.5
433.15 K, 30000 kPa	1115 ± 2.6
433.15 K, 40000 kPa	1173.6 ± 2.7
433.15 K, 60000 kPa	1276.6 ± 2.8
433.15 K, 80000 kPa	1366.2 ± 3
433.15 K, 100000 kPa	1446.2 ± 3.2

Source: the NIST ThermoML archive (doi:10.1016/j.fluid.2006.01.027)
